The record followed here is publication PMC8035258 (ChemMedChem, 2021).

The target in the first experiment is Mitochondrial respiratory complex II (Mus musculus, UniProt Q8K2B3+Q9CQA3+Q9CXV1+Q9CZB0). Briefly: Complex II inhibition assay. Type of experiment: biochemical. Particulars: 100 μM; mouse liver mitochondria; mean ±SD of n = 4.
Sequence of Mitochondrial respiratory complex II (Q8K2B3 43-664): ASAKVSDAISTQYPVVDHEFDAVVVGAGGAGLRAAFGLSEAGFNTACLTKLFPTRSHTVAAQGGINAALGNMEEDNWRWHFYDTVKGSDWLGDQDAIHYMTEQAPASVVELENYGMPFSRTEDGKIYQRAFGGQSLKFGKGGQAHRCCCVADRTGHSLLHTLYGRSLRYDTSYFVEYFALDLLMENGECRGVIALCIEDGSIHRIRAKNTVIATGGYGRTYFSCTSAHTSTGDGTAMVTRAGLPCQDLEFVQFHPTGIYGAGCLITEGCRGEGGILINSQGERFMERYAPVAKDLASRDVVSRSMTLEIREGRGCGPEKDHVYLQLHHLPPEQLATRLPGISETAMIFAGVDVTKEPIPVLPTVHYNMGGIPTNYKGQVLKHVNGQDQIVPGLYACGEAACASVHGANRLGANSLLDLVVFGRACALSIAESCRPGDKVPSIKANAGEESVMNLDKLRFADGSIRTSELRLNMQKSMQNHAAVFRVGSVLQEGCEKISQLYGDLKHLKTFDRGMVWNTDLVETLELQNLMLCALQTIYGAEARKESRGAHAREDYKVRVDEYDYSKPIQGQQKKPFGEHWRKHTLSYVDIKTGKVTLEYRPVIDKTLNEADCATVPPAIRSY
Sequence of Mitochondrial respiratory complex II (Q9CQA3 31-282): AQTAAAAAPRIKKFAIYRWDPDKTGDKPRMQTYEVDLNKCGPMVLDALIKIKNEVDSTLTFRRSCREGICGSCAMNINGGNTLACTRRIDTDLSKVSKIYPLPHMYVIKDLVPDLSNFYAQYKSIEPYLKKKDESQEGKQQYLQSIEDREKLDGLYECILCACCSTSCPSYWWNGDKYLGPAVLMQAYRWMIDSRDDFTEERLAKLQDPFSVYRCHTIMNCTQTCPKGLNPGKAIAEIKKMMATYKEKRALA
Sequence of Mitochondrial respiratory complex II (Q9CZB0 30-169): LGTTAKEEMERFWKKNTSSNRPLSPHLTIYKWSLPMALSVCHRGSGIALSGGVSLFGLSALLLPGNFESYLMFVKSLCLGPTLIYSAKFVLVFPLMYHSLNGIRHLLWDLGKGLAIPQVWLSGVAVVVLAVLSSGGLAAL
Sequence of Mitochondrial respiratory complex II (Q9CXV1 57-159): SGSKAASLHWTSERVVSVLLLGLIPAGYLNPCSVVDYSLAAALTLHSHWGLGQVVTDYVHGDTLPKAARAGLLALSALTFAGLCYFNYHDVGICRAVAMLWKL
With `O=S1(=O)N=C(NCc2ccc(Cl)cc2)Nc2ccccc21` [Compound 16d, 3-((4-Chlorobenzyl)amino)-4H-benzo[e][1,2,4]thiadiazine 1,1-dioxide], the “% Inhibition CII (100 μM)” value is “inactive”.

Staying with this experiment, now noted: read-out: % Inhibition CII (100 μM), 100 μM; mouse liver mitochondria; mean ±SD of n = 4.
In general, inhibition refers to how much of the control response was suppressed. On to `O=S1(=O)N=C(NCc2ccc(F)cc2)Nc2ccc(Br)cc21` [Compound 17c, 7-Bromo-3-((4-fluorobenzyl)amino)-4H-benzo[e][1,2,4]thiadiazine 1,1-dioxide], for which the inhibition at 100 µM came to 35 ± 9.9%.

As for `O=S1(=O)N=C(NC2CCCC2)Nc2ccc(F)cc21` [Compound 22a, 7-Fluoro-3-(cyclopentylamino)-4H-benzo[e][1,2,4]thiadiazine 1,1-dioxide], the inhibition at 100 µM was found to be 1 ± 4.7%.

`O=S1(=O)N=C(NCc2ccc(F)cc2)Nc2cc(Cl)ccc21` [Compound 17b, 6-Chloro-3-((4-fluorobenzyl)amino)-4H-benzo[e][1,2,4]thiadiazine 1,1-dioxide]: the inhibition at 100 µM was 0%.

`O=S1(=O)N=C(NCc2ccc(C(F)(F)F)cc2)Nc2ccc(F)cc21` [Compound 25a, 7-Fluoro-3-((4-(trifluoromethyl)benzyl)amino)-4H-benzo[e][1,2,4]thiadiazine 1,1-dioxide]: the inhibition at 100 µM was found to be 6 ± 15.7%.

Turning to `O=S1(=O)N=C(NCc2ccccc2C(F)(F)F)Nc2ccc(Br)cc21` [Compound 35c, 7-Bromo-3-((2-(trifluoromethyl)benzyl)amino)-4H-benzo[e][1,2,4]thiadiazine 1,1-dioxide], the inhibition at 100 µM was 29 ± 5.9%.

Consider `O=S1(=O)N=C(NCc2ccc(F)cc2)Nc2ccccc21` [Compound 17d, 3-((4-Fluorobenzyl)amino)-4H-benzo[e][1,2,4]thiadiazine 1,1-dioxide], for which the inhibition at 100 µM turned out to be 7 ± 9.9%.

Regarding `O=S1(=O)N=C(NCCc2ccccc2)Nc2cc(Cl)ccc21` [Compound 18b, 6-Chloro-3-(phenethylamino)-4H-benzo[e][1,2,4]thiadiazine 1,1-dioxide], the inhibition at 100 µM stood at 19 ± 22.6%.

For the compound `COc1cccc(CNC2=NS(=O)(=O)c3cc(Br)ccc3N2)c1` [Compound 28c, 7-Bromo-3-((3-methoxybenzyl)amino)-4H-benzo[e][1,2,4]thiadiazine 1,1-dioxide], the inhibition at 100 µM stood at 24 ± 5.2%.

For the compound `O=S1(=O)N=C(NCc2ccccc2)Nc2ccc(F)cc21` [Compound 21a, 3-(Benzylamino)-7-fluoro-4H-benzo[e][1,2,4]thiadiazine 1,1-dioxide], the inhibition at 100 µM worked out at 0%.

Consider `O=C1Nc2ccc(F)cc2S(=O)(=O)N1` [Compound 11a, 7-Fluoro-3-oxo-3,4-dihydro-2H-1,2,4-benzothiadiazine 1,1-dioxide], for which the inhibition at 100 µM came to 6 ± 1.5%.

In the case of `CSC1=NS(=O)(=O)c2cc(F)ccc2N1C` [Compound 42a, 7-Fluoro-4-methyl-3-(methylthio)-4H-benzo[e][1,2,4]thiadiazine 1,1-dioxide], the inhibition at 100 µM was 6 ± 13.4%.

For `CC(C)NC1=NS(=O)(=O)c2ccccc2N1` [Compound 14d, 3-(Isopropylamino)-4H-benzo[e][1,2,4]thiadiazine 1,1-dioxide], the inhibition at 100 µM amounted to 0%.

Consider `CC(C)C(C)NC1=NS(=O)(=O)c2ccc(Cl)cc2N1` (stereo not drawn) [Compound 15b, 6-Chloro-3-((3-methylbutan-2-yl)amino)-4H-benzo[e][1,2,4]thiadiazine 1,1-dioxide], for which the inhibition at 100 µM worked out at 0%.

Consider `CC(C)NC1=NS(=O)(=O)c2cc(F)ccc2N1` [Compound 14a, 7-Fluoro-3-isopropylamino-4H-1,2,4-benzothiadiazine 1,1-dioxide], for which the inhibition at 100 µM was determined as 4 ± 6.9%.

As to `CSC1=NS(=O)(=O)c2cc(Br)ccc2N1` [Compound 13c, 7-Bromo-3-methylsulfanyl-4H-1,2,4-benzothiadiazine 1,1-dioxide], the inhibition at 100 µM is 10 ± 2.7%.

`O=S1(=O)N=C(NCc2ccccc2)Nc2ccccc21` [Compound 21d, 3-(Benzylamino)-4H-benzo[e][1,2,4]thiadiazine 1,1-dioxide]: the inhibition at 100 µM worked out at 0%.

For the compound `CCNC1=NS(=O)(=O)c2ccc(Cl)cc2N1` [Compound 19b, 6-Chloro-3-(ethylamino)-4H-benzo[e][1,2,4]thiadiazine 1,1-dioxide], the inhibition at 100 µM was 0%.

In the case of `CSC1=NS(=O)(=O)c2ccccc2N1C` [Compound 42d, 4-Methyl-3-(methylthio)-4H-benzo[e][1,2,4]thiadiazine 1,1-dioxide], the inhibition at 100 µM came to 0%.

Consider `O=S1(=O)NC(=S)Nc2ccccc21` [Compound 12d, 2H-benzo[e][1,2,4]thiadiazine-3(4H)-thione 1,1-dioxide], for which the inhibition at 100 µM worked out at 2 ± 5.8%.

For `O=S1(=O)N=C(NCc2ccccc2)Nc2ccc(Br)cc21` [Compound 21c, 3-(Benzylamino)-7-bromo-4H-benzo[e][1,2,4]thiadiazine 1,1-dioxide], the inhibition at 100 µM was 36 ± 9%.

Consider `O=S1(=O)N=C(NCCc2ccc(Cl)cc2)Nc2ccc(F)cc21` [Compound 37a, 3-((4-Chlorophenethyl)amino)-7-fluoro-4H-benzo[e][1,2,4]thiadiazine 1,1-dioxide], for which the inhibition at 100 µM was 34 ± 18.4%.

Turning to `O=S1(=O)N=C(NCc2ccc(Cl)cc2)Nc2ccccc21` [Compound 16d, 3-((4-Chlorobenzyl)amino)-4H-benzo[e][1,2,4]thiadiazine 1,1-dioxide], the inhibition at 100 µM was determined as 0%.

Turning to `CC(C)NC1=NS(=O)(=O)c2ccc(Cl)cc2N1` [Compound 14b, 6-Chloro-3-isopropylamino-4H-1,2,4-benzothiadiazine 1,1-dioxide], the inhibition at 100 µM was 0%.

`CCNC1=NS(=O)(=O)c2cc(F)ccc2N1` [Compound 19a, 3-(Ethylamino)-7-fluoro-4H-benzo[e][1,2,4]thiadiazine 1,1-dioxide]: the inhibition at 100 µM was 0%.

Regarding `O=S1(=O)N=C(NCc2ccc(SC(F)(F)F)cc2)Nc2ccc(F)cc21` [Compound 38a, 7-Fluoro-3-((4-((trifluoromethyl)thio)benzyl)amino)-4H-benzo[e] [1,2,4]thiadiazine 1,1-dioxide], the inhibition at 100 µM stood at 23 ± 12.3%.

Consider `O=S1(=O)N=C(NCCCc2ccccc2)Nc2ccccc21` [Compound 23d, 3-((3-Phenylpropyl)amino)-4H-benzo[e][1,2,4]thiadiazine 1,1-dioxide], for which the inhibition at 100 µM was 0%.

Turning to `CSC1=NS(=O)(=O)c2ccc(Cl)cc2N1` [Compound 13b, 6-Chloro-3-methylsulfanyl-4H-1,2,4-benzothiadiazine 1,1-dioxide], the inhibition at 100 µM was 24 ± 0.7%.

For `COc1ccc(CNC2=NS(=O)(=O)c3ccccc3N2)cc1` [Compound 20d, 3-((4-Methoxybenzyl)amino)-4H-benzo[e][1,2,4]thiadiazine 1,1-dioxide], the inhibition at 100 µM came out at 0%.

As for `Nc1ccc(CNC2=NS(=O)(=O)c3cc(Br)ccc3N2)cc1` [Compound 31c, 3-((4-Aminobenzyl)amino)-7-bromo-4H-benzo[e][1,2,4]thiadiazine 1,1-dioxide], the inhibition at 100 µM stood at 9 ± 6%.

As for `COc1ccccc1CNC1=NS(=O)(=O)c2ccc(Cl)cc2N1` [Compound 26b, 6-Chloro-3-((2-methoxybenzyl)amino)-4H-benzo[e][1,2,4]thiadiazine 1,1-dioxide], the inhibition at 100 µM worked out at 0%.

In the case of `O=S1(=O)N=C(NC2CCCC2)Nc2ccc(Br)cc21` [Compound 22c, 7-Bromo-3-(cyclopentylamino)-4H-benzo[e][1,2,4]thiadiazine 1,1-dioxide], the inhibition at 100 µM was 25 ± 7.8%.

Take `CSC1=NS(=O)(=O)c2ccccc2N1` [Compound 13d, 3-(Methylthio)-4H-benzo[e][1,2,4]thiadiazine 1,1-dioxide]: the inhibition at 100 µM is 4 ± 5.5%.

For `C=CCNC1=NS(=O)(=O)c2ccccc2N1` [Compound 32d, 3-(Allylamino)-4H-benzo[e][1,2,4]thiadiazine 1,1-dioxide], the inhibition at 100 µM was 2 ± 12.3%.

`O=S1(=O)NC(=S)Nc2ccc(F)cc21` [Compound 12a, 7-Fluoro-3-thioxo-3,4-dihydro-2H-1,2,4-benzothiadiazine 1,1-dioxide]: the inhibition at 100 µM worked out at 0%.

Consider `C=CCNC1=NS(=O)(=O)c2ccc(Cl)cc2N1` [Compound 32b, 3-(Allylamino)-6-chloro-4H-benzo[e][1,2,4]thiadiazine 1,1-dioxide], for which the inhibition at 100 µM is 0%.

For `COc1ccc(CNC2=NS(=O)(=O)c3cc(F)ccc3N2)cc1` [Compound 20a, 7-Fluoro-3-((4-methoxybenzyl)amino)-4H-benzo[e][1,2,4]thiadiazine 1,1-dioxide], the inhibition at 100 µM was determined as 0%.

For the compound `CCNC1=NS(=O)(=O)c2ccccc2N1` [Compound 19d, 3-(Ethylamino)-4H-benzo[e][1,2,4]thiadiazine 1,1-dioxide], the inhibition at 100 µM stood at 0%.

Take `O=C1Nc2ccccc2S(=O)(=O)N1` [Compound 11d, 2H-benzo[e][1,2,4]thiadiazin-3(4H)-one 1,1-dioxide]: the inhibition at 100 µM amounted to 0%.

`CC(C)NC1=NS(=O)(=O)c2ccccc2N1C` [Compound 43d, 3-(Isopropylamino)-4-methyl-4H-benzo[e][1,2,4]thiadiazine 1,1-dioxide]: the inhibition at 100 µM is 0%.

Take `O=C1Nc2ccc(Br)cc2S(=O)(=O)N1` [Compound 11c, 7-Bromo-3-oxo-3,4-dihydro-2H-1,2,4-benzothiadiazine1,1-dioxide]: the inhibition at 100 µM stood at 0%.

In the case of `CC(C)C(C)NC1=NS(=O)(=O)c2ccccc2N1` (stereo not drawn) [Compound 15d, 3-((3-Methylbutan-2-yl)amino)-4H-benzo[e][1,2,4]thiadiazine 1,1-dioxide], the inhibition at 100 µM was determined as 0%.

Take `CC(C)C(C)NC1=NS(=O)(=O)c2cc(F)ccc2N1` (stereo not drawn) [Compound 15a, 7-Fluoro-3-((3-methylbutan-2-yl)amino)-4H-benzo[e][1,2,4]thiadiazine 1,1-dioxide]: the inhibition at 100 µM came to 5 ± 4.5%.

Turning to `O=S1(=O)N=C(NCCc2ccccc2)Nc2ccc(F)cc21` [Compound 18a, 7-Fluoro-3-(phenethylamino)-4H-benzo[e][1,2,4]thiadiazine 1,1-dioxide], the inhibition at 100 µM worked out at 4 ± 15.5%.

On to `O=S1(=O)N=C(NCCc2cccc(C(F)(F)F)c2)Nc2ccc(F)cc21` [Compound 41a, 7-Fluoro-3-((3-(trifluoromethyl)phenethyl)amino)-4H-benzo[e][1,2,4] thiadiazine 1,1-dioxide], for which the inhibition at 100 µM is 20 ± 5.2%.
